# Assay results taken from patent publication US20220257491A1, “Prebiotic Oral Care Compositions and Methods” (Colgate-Palmolive Company, priority 2021, published 2022).
# Marks after values point to notes of the source that are not given here.
# Columns and labels:
# Type in all cases: cell-based
# [1] = test system: human oral keratinocytes (HOK-18A); assay: Inflammatory mediator gene expression in keratinocytes exposed to substrate-treated biofilms; conditions: relative to control (=1), geometric mean (95% C.I.) n=3
# Protocol: Cultures of immortalized human oral keratinocytes (HOK-18A) are grown. The relative inflammatory potential of the substrate-treated multi-species biofilms is evaluated by analyzing the expression of five inflammatory mediator genes in human oral keratinocytes (HOKs) exposed to the substrate-treated biofilms. […] The IL-8 levels in the cellular supernatant are determined as well. RNA is converted to cDNA and relative expression of inflammatory mediator genes is determined as described above with respect to the cellular housekeeping gene (3-actin.
# In HOKs exposed to substrate-treated (substrate concentrations of 1 M) multi-species biofilms, mostly decreases in inflammatory mediator gene expression are observed and measured via SYBR RT-qPCR, the results of which are detailed in Table 6.
# All substrates are dissolved in PBS at a concentration of 1 M (upper part) or 1% (w/v) (lower part). Values between 0 and 1 represent relative downregulation, values >1 represent relative upregulation. […] For such values, statistically significant differences between two experimental conditions are marked with ‘#1’ (vs. NADM), ‘#2’ (vs. NADG), ‘#3’ (vs. D-(+)-mannose) (P<0.05).
# [2] = test system: S. sanguinis; assay: Multi-species biofilm composition: absolute abundance of S. sanguinis; conditions: mean±SD n=3
# Protocol: (§1) Biofilms are grown vertically on Calcium Deficient Hydroxyapatite (CAD-HA) disks (Hitemco Medical, Old Bethpage, USA) using the Amsterdam Active Adhesion model. Biofilms are allowed to establish during 24 h (37° C., 170 rpm) under micro-aerophilic conditions (6% O2, 7% CO2, 7% H2, 80% N2). After this 24 h, disks are rinsed 3 times a day for 3 minutes (RT, 250 rpm), for 3 consecutive days, by transferring the lid containing the disks to a new 24-well plate containing 2 mL/well of the appropriate substrate solution. As a negative control, PBS (pH 5.7) without substrate supplementation is used. After each rinsing step, disks are shortly dip-rinsed in a new 24-well plate containing fresh modified BHI medium (2 mL/well) to remove remaining substrate traces. Subsequently, the lid is transferred to another 24-well plate containing fresh modified BHI medium (2 mL/well), followed by incubation (micro-aerophilic, 37° C., 170 rpm) until the next rinsing step.
# (§2) NADM, N-acetyl-D-glucosamine (“NADG”) and D-(+)-mannose are selected to determine their effects on multi-species biofilm composition. […] decrease in absolute numbers in at least four of the pathogenic bacterial species tested in the assay, compared to the control, the results of which are described in Table 1 below. Absolute abundances of bacterial species are shown as mean±SD (n=3) logarithmic values of the genome equivalents per millilitre (log(Geq/mL)).
# [3] = test system: A. actinomycetemcomitans virulence genes; assay: Multi-species biofilm virulence gene expression, SYBR RT-qPCR: A. actinomycetemcomitans; conditions: for Fold Change in virulence gene expression: aae / Fold Change in virulence gene expression: apaH / Fold Change in virulence gene expression: cdtB / Fold Change in virulence gene expression: emaA / Fold Change in virulence gene expression: flp / Fold Change in virulence gene expression: ltxA / Fold Change in virulence gene expression: omp29 / Fold Change in virulence gene expression: omp100 / Fold Change in virulence gene expression: orf859 / Fold Change in virulence gene expression: pgA / Fold Change in virulence gene expression: vapA / Fold Change in virulence gene expression: vppA: relative to control (=1), 2^-ΔΔCt, geometric mean n=3
# Protocol: as §1
# (§3) The expression of 33 virulence genes from 4 periodontal pathogens is analysed to evaluate the relative virulence of the substrate-treated biofilms. For all three substrates, virulence gene expression is determined relatively to the control, and these values are also compared between substrates when this is relevant (Tables 5a-5d).
# [4] = test system: S. mitis; assay: Multi-species biofilm composition: absolute abundance of S. mitis; conditions: mean±SD n=3
# Protocol: as §1, §2
# [5] = test system: P. intermedia virulence genes; assay: Multi-species biofilm virulence gene expression, SYBR RT-qPCR: P. intermedia; conditions: for Fold Change in virulence gene expression: DnaJ / Fold Change in virulence gene expression: DnaK / Fold Change in virulence gene expression: ECF / Fold Change in virulence gene expression: GroES / Fold Change in virulence gene expression: HtpG / Fold Change in virulence gene expression: KpsD / Fold Change in virulence gene expression: adpc / Fold Change in virulence gene expression: clpB / Fold Change in virulence gene expression: inpA / Fold Change in virulence gene expression: phg: relative to control (=1), 2^-ΔΔCt, geometric mean n=3
# Protocol: as §1, §3
# [6] = test system: P. gingivalis virulence genes; assay: Multi-species biofilm virulence gene expression, SYBR RT-qPCR: P. gingivalis; conditions: for Fold Change in virulence gene expression: fimA / Fold Change in virulence gene expression: kgp / Fold Change in virulence gene expression: partC / Fold Change in virulence gene expression: rgpA: relative to control, 2^-ΔΔCt, geometric mean n=3
# Protocol: as §1, §3
# [7] = test system: A. actinomycetemcomitans; assay: Multi-species biofilm composition: absolute abundance of A. actinomycetemcomitans; conditions: mean±SD n=3
# Protocol: as §1, §2
# [8] = test system: S. mutans; assay: Multi-species biofilm composition: absolute abundance of S. mutans; conditions: mean±SD n=3
# Protocol: as §1
# NADM, N-acetyl-D-glucosamine (“NADG”) and D-(+)-mannose are selected to determine their effects on multi-species biofilm composition. Repeated rinsing of the biofilms with the substrates at a concentration of 1M results in a significant decrease in absolute numbers in at least four of the pathogenic bacterial species tested in the assay, compared to the control, the results of which are described in Table 1 below. Absolute abundances of bacterial species are shown as mean±SD (n=3) logarithmic values of the genome equivalents per millilitre (log(Geq/mL)).
# [9] = test system: F. nucleatum; assay: Multi-species biofilm composition: absolute abundance of F. nucleatum; conditions: mean±SD n=3
# Protocol: as §1, §2
# [10] = biofilm rinsed with substrate 1%
# [11] = biofilm rinsed with substrate 1M
structure (smiles),measurement,setting,value
"CC(=O)N[C@H]1C(O)O[C@H](CO)[C@@H](O)[C@@H]1O (stereo partly drawn) [NADG, N-acetyl-D-glucosamine, reference compound]",Fold change in inflammatory mediator gene expression: IL-1β,[1]; [10],0.71 (0.38-1.33) fold
same,Fold change in inflammatory mediator gene expression: IL-6,[1]; [10],0.73 (0.58-0.93) fold
same,Fold change in inflammatory mediator gene expression: IL-8,[1]; [10],1.00 (0.78-1.27) fold
same,Fold change in inflammatory mediator gene expression: MMP-8,[1]; [10],0.52 (0.17-1.60) fold
same,Fold change in inflammatory mediator gene expression: TNF-α,[1]; [10],0.71 (0.28-1.35) fold
same,Fold change in inflammatory mediator gene expression: IL-1β,[1]; [11],0.75 (0.55-1.02) fold
same,Fold change in inflammatory mediator gene expression: IL-6,[1]; [11],0.57 (0.46-0.71) fold
same,Fold change in inflammatory mediator gene expression: IL-8,[1]; [11],0.14 (0.06-0.36)* fold
same,Fold change in inflammatory mediator gene expression: MMP-8,[1]; [11],1.28 (0.79-2.08) fold
same,Fold change in inflammatory mediator gene expression: TNF-α,[1]; [11],0.89 (0.59-1.34) fold
same,Absolute abundance S. sang. (S. sanguinis),[2]; substrate 1%(w/v) in PBS,8.4 ± 0.11 log(Geq/mL)
same,Absolute abundance S. sang. (S. sanguinis),[2]; substrate 1 M in PBS,8.11 ± 0.68 log(Geq/mL)
same,Fold Change in virulence gene expression: aae,[3]; substrate 1% (w/v),1.55 fold
same,Fold Change in virulence gene expression: apaH,[3]; substrate 1% (w/v),0.73 fold
same,Fold Change in virulence gene expression: cdtB,[3]; substrate 1% (w/v),1.05 fold
same,Fold Change in virulence gene expression: emaA,[3]; substrate 1% (w/v),0.68 fold
same,Fold Change in virulence gene expression: flp,[3]; substrate 1% (w/v),0.54 fold
same,Fold Change in virulence gene expression: ltxA,[3]; substrate 1% (w/v),0.40 fold
same,Fold Change in virulence gene expression: omp29,[3]; substrate 1% (w/v),0.77 fold
same,Fold Change in virulence gene expression: omp100,[3]; substrate 1% (w/v),0.71 fold
same,Fold Change in virulence gene expression: orf859,[3]; substrate 1% (w/v),1.99 fold
same,Fold Change in virulence gene expression: pgA,[3]; substrate 1% (w/v),0.72 fold
same,Fold Change in virulence gene expression: vapA,[3]; substrate 1% (w/v),0.65 fold
same,Fold Change in virulence gene expression: vppA,[3]; substrate 1% (w/v),0.28 fold
same,A. actinomycetemcomitans gene expression decrease: vppA,[3]; substrate 1%(w/v),3.6 fold
same,A. actinomycetemcomitans gene expression increase: aae,[3]; substrate 1%(w/v),1.5 fold
same,A. actinomycetemcomitans gene expression increase: orf859,[3]; substrate 1%(w/v),2 fold
same,Upregulation of A. actinomycetemcomitans expression of flp,[3]; substrate 1 M,2.4 fold
same,Fold Change in virulence gene expression: aae,[3]; substrate 1M,0.24 fold
same,Fold Change in virulence gene expression: apaH,[3]; substrate 1M,0.08 fold
same,Fold Change in virulence gene expression: cdtB,[3]; substrate 1M,0.04 fold
same,Fold Change in virulence gene expression: emaA,[3]; substrate 1M,0.29 fold
same,Fold Change in virulence gene expression: flp,[3]; substrate 1M,2.40 fold
same,Fold Change in virulence gene expression: ltxA,[3]; substrate 1M,0.01 fold
same,Fold Change in virulence gene expression: omp29,[3]; substrate 1M,0.19 fold
same,Fold Change in virulence gene expression: omp100,[3]; substrate 1M,0.03 fold
same,Fold Change in virulence gene expression: orf859,[3]; substrate 1M,0.13 fold
same,Fold Change in virulence gene expression: pgA,[3]; substrate 1M,11.60 fold
same,Fold Change in virulence gene expression: vapA,[3]; substrate 1M,1.00 fold
same,Fold Change in virulence gene expression: vppA,[3]; substrate 1M,0.49 fold
same,Absolute abundance S. mitis,[4]; substrate 1%(w/v) in PBS,< LOD
same,Absolute abundance S. mitis,[4]; substrate 1 M in PBS,<LOD
same,"Relative P. intermedia virulence gene expression, downregulation","[5]; substrate 1%(w/v), D-(+)-mannose for 3 genes",unaffected
same,Fold Change in virulence gene expression: DnaJ,[5]; substrate 1%,0.7 fold
same,Fold Change in virulence gene expression: DnaK,[5]; substrate 1%,0.77 fold
same,Fold Change in virulence gene expression: ECF,[5]; substrate 1%,0.48 fold
same,Fold Change in virulence gene expression: GroES,[5]; substrate 1%,0.75 fold
same,Fold Change in virulence gene expression: HtpG,[5]; substrate 1%,0.46 fold
same,Fold Change in virulence gene expression: KpsD,[5]; substrate 1%,0.78 fold
same,Fold Change in virulence gene expression: adpc,[5]; substrate 1%,0.67 fold
same,Fold Change in virulence gene expression: clpB,[5]; substrate 1%,1.06 fold
same,Fold Change in virulence gene expression: inpA,[5]; substrate 1%,0.53 fold
same,Fold Change in virulence gene expression: phg,[5]; substrate 1%,0.69 fold
same,"P. intermedia virulence gene expression, increases","[5]; substrate 1 M, range over genes",2- to 20.3 fold
same,Fold Change in virulence gene expression: DnaJ,[5]; substrate 1M,0.64 fold
same,Fold Change in virulence gene expression: DnaK,[5]; substrate 1M,2.34 fold
same,Fold Change in virulence gene expression: ECF,[5]; substrate 1M,20.32 fold
same,Fold Change in virulence gene expression: GroES,[5]; substrate 1M,1.86 fold
same,Fold Change in virulence gene expression: HtpG,[5]; substrate 1M,3.40 fold
same,Fold Change in virulence gene expression: KpsD,[5]; substrate 1M,1.72 fold
same,Fold Change in virulence gene expression: adpc,[5]; substrate 1M,2.65 fold
same,Fold Change in virulence gene expression: clpB,[5]; substrate 1M,2.03 fold
same,Fold Change in virulence gene expression: inpA,[5]; substrate 1M,4.52 fold
same,Fold Change in virulence gene expression: phg,[5]; substrate 1M,0.57 fold
same,P. gingivalis partC expression decrease,[6]; substrate 1%(w/v),2.8 fold
same,Fold Change in virulence gene expression: fimA,[6]; substrate 1%,1.15 fold
same,Fold Change in virulence gene expression: kgp,[6]; substrate 1%,1.81 fold
same,Fold Change in virulence gene expression: partC,[6]; substrate 1%,0.36 fold
same,Fold Change in virulence gene expression: rgpA,[6]; substrate 1%,1.31 fold
same,Fold Change in virulence gene expression: fimA,[6]; substrate 1M,0.79 fold
same,Fold Change in virulence gene expression: kgp,[6]; substrate 1M,0.07 fold
same,Fold Change in virulence gene expression: partC,[6]; substrate 1M,0.19 fold
same,Fold Change in virulence gene expression: rgpA,[6]; substrate 1M,0.39 fold
same,Absolute abundance Aa (A. actinomycetemcomitans),[7]; substrate 1%(w/v) in PBS,9.11 ± 0.20 log(Geq/mL)
same,Absolute abundance Aa (A. actinomycetemcomitans),[7]; substrate 1 M in PBS,6.6 ± 0.93 log(Geq/mL)
same,Absolute abundance S. mutans,[8]; substrate 1%(w/v) in PBS,7.83 ± 0.23 log(Geq/mL)
same,Absolute abundance S. mutans,[8]; substrate 1 M in PBS,8.95 ± 0.38 log(Geq/mL)
same,Absolute abundance Fn (F. nucleatum),[9]; substrate 1%(w/v) in PBS,9.41 ± 0.19 log(Geq/mL)
same,Absolute abundance Fn (F. nucleatum),[9]; substrate 1 M in PBS,7.09 ± 0.30 log(Geq/mL)
